29 compounds from patent EP2951180B1, “2,6,7,8 SUBSTITUTED PURINES AS HDM2 INHIBITORS” (Merck Sharp & Dohme Corp., priority 2013, dated 2014) can be followed below.

The IC50 is the midpoint of a concentration-inhibition curve.

In one assay the target is T1, HDM2 (Homo sapiens, UniProt Q00987).
T1 construct: Thioredoxin (N); made in house; host or cells: E. coli strain BL21(DE3)Rosetta
T1 sequence (Q00987 17-125): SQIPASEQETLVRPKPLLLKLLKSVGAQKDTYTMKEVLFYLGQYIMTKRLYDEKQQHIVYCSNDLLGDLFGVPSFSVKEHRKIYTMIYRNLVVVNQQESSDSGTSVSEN
In words: HDM2 FRET assay (inhibition of binding of FITC labeled p53-pocket peptide to HDM2). The following applies: Table 6; read-out: FRET IC50. The method, boiled down:
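Signal is read as the 520/495 nm emission ratio and converted to percent inhibition; nonlinear sigmoidal regression yields IC50. The assay mixes HDM2 (0.5 nM), FITC-p53 peptide (3 nM) and Tb anti-His antibody (0.25 nM) at 0.1% DMSO.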
`CCN(CC)c1nc(C(=O)O)nc2nc(-c3cccc(C)c3)n(Cc3ccc(C(F)(F)F)cc3)c12` [Example 6.51, 6-(diethylamino)-8-(3-methylphenyl)-7-[4-(trifluoromethyl)benzyl]-7H-purine-2-carboxylic acid]: the 50% inhibitory concentration (IC50) is 4600 nM.

In the case of `Cc1cccc(-c2nc3nc(C(=O)O)nc(N[C@H](C4CC4)C(F)(F)F)c3n2Cc2ccc(C(F)(F)F)cc2)c1` [Example 6.52, 6-{[(1R)-1-cyclopropyl-2,2,2-trifluoroethyl]amino}-8-(3-methylphenyl)-7-[4-(trifluoromethyl)benzyl]-7H-purine-2-carboxylic acid], the IC50 was determined as 319 nM. For `Cc1cccc(-c2nc3nc(C(=O)O)nc(N[C@@H](C4CC4)C(F)(F)F)c3n2Cc2ccc(C(F)(F)F)cc2)c1` [Example 6.53, 6-{[(1S)-1-cyclopropyl-2,2,2-trifluoroethyl]amino}-8-(3-methylphenyl)-7-[4-(trifluoromethyl)benzyl]-7H-purine-2-carboxylic acid], the IC50 is 419 nM. The same measure, in the same setting: next, `CC[C@H](Nc1nc(C(=O)O)nc2nc(-c3cc(C(C)C)ccn3)n(Cc3ccc(C(F)(F)F)cc3)c12)C1CCC1` [Example 6.54, 6-{[(1S)-1-cyclobutylpropyl]amino}-8-[4-(1-methylethyl)pyridin-2-yl]-7-[4-(trifluoromethyl)benzyl]-7H-purine-2-carboxylic acid]: 203 nM; `CC[C@@H](Nc1nc(C(=O)O)nc2nc(-c3cc(C(C)C)ccn3)n(Cc3ccc(C(F)(F)F)cc3)c12)C1CCC1` [Example 6.55, 6-{[(1R)-1-cyclobutylpropyl]amino}-8-[4-(1-methylethyl)pyridin-2-yl]-7-[4-(trifluoromethyl)benzyl]-7H-purine-2-carboxylic acid]: 9.27 nM. Take `COc1ccc(C)cc1-c1nc2nc(C(=O)O)nc(N[C@H](C)C3CC3(C)C)c2n1Cc1ccc(C(F)(F)F)cc1` (stereo partly drawn) [Example 6.56, 6-{[(1R)-1-(2,2-dimethylcyclopropyl)ethyl]amino}-8-(2-methoxy-5-methylphenyl)-7-[4-(trifluoromethyl)benzyl]-7H-purine-2-carboxylic acid]: the IC50 is 1410 nM. For the compound `CC(C)c1ccnc(-c2nc3nc(C(=O)O)nc(N[C@@H](c4ccccc4)C4CCC4)c3n2Cc2ccc(C(F)(F)F)cc2)c1` [Example 6.57, 6-{[(R)-cyclobutyl(phenyl)methyl]amino}-8-[4-(1-methylethyl)pyridin-2-yl]-7-[4-(trifluoromethyl)benzyl]-7H-purine-2-carboxylic acid], the IC50 worked out at 1060 nM. On the same count and under the same terms, the result for `CC(C)c1ccnc(-c2nc3nc(C(=O)O)nc(N[C@H](c4ccccc4)C4CCC4)c3n2Cc2ccc(C(F)(F)F)cc2)c1` [Example 6.58, 6-{[(S)-cyclobutyl(phenyl)methyl]amino}-8-[4-(1-methylethyl)pyridin-2-yl]-7-[4-(trifluoromethyl)benzyl]-7H-purine-2-carboxylic acid] reads 49.2 nM; that for `CCN(C)c1nc(C(=O)O)nc2nc(-c3cccc(C)c3)n(Cc3ccc(C(F)(F)F)cc3)c12` [Example 6.59, 6-[ethyl(methyl)amino]-8-(3-methylphenyl)-7-[4-(trifluoromethyl)benzyl]-7H-purine-2-carboxylic acid], 1000 nM; that for `CC[C@@H](C)Nc1nc(C(=O)O)nc2nc(-c3cccc(C)c3)n(Cc3ccc(C(F)(F)F)cc3)c12` [Example 6.60, 8-(3-methylphenyl)-6-{[(1R)-1-methylpropyl]amino}-7-[4-(trifluoromethyl)benzyl]-7H-purine-2-carboxylic acid], 583 nM. The same measure, in the same setting: the result for `CCC(C)CNc1nc(C(=O)O)nc2nc(-c3cccc(C)c3)n(Cc3ccc(C(F)(F)F)cc3)c12` (centres unmarked) [Example 6.63, 6-[(2-methylbutyl)amino]-8-(3-methylphenyl)-7-[4-(trifluoromethyl)benzyl]-7H-purine-2-carboxylic acid] reads 719 nM; that for `CCCC(CCC)Nc1nc(C(=O)O)nc2nc(-c3cccc(C)c3)n(Cc3ccc(C(F)(F)F)cc3)c12` [Example 6.64, 8-(3-methylphenyl)-6-[(1-propylbutyl)amino]-7-[4-(trifluoromethyl)benzyl]-7H-purine-2-carboxylic acid], 920 nM. On to `CCCCN(CCC)c1nc(C(=O)O)nc2nc(-c3cccc(C)c3)n(Cc3ccc(C(F)(F)F)cc3)c12` [Example 6.68, 6-[butyl(propyl)amino]-8-(3-methylphenyl)-7-[4-(trifluoromethyl)benzyl]-7H-purine-2-carboxylic acid], for which the IC50 was found to be 681 nM.

Consider `CCCCN(CC)c1nc(C(=O)O)nc2nc(-c3cccc(C)c3)n(Cc3ccc(C(F)(F)F)cc3)c12` [Example 6.69, 6-[butyl(ethyl)amino]-8-(3-methylphenyl)-7-[4-(trifluoromethyl)benzyl]-7H-purine-2-carboxylic acid], for which the half-maximal inhibitory concentration (IC50) was 621 nM. With `Cc1cccc(-c2nc3nc(C(=O)O)nc(N(C)CC(C)C)c3n2Cc2ccc(C(F)(F)F)cc2)c1` [Example 6.71, 6-[methyl(2-methylpropyl)amino]-8-(3-methylphenyl)-7-[4-(trifluoromethyl)benzyl]-7H-purine-2-carboxylic acid], the IC50 came out at 940 nM. `Cc1cccc(-c2nc3nc(C(=O)O)nc(NC(C)C(C)C)c3n2Cc2ccc(C(F)(F)F)cc2)c1` (centres unmarked) [Example 6.73, 6-[(1,2-dimethylpropyl)amino]-8-(3-methylphenyl)-7-[4-(trifluoromethyl)benzyl]-7H-purine-2-carboxylic acid]: the IC50 amounted to 437 nM. For `Cc1cccc(-c2nc3nc(C(=O)O)nc(NC(C)C(C)(C)C)c3n2Cc2ccc(C(F)(F)F)cc2)c1` (centres unmarked) [Example 6.74, 8-(3-methylphenyl)-7-[4-(trifluoromethyl)benzyl]-6-[(1,2,2-trimethylpropyl)amino]-7H-purine-2-carboxylic acid], the IC50 was determined as 552 nM. Regarding `Cc1cccc(-c2nc3nc(C(=O)O)nc(NCC4CCC4)c3n2Cc2ccc(C(F)(F)F)cc2)c1` [Example 6.75, 6-[(cyclobutylmethyl)amino]-8-(3-methylphenyl)-7-[4-(trifluoromethyl)benzyl]-7H-purine-2-carboxylic acid], the concentration for half-maximal inhibition (IC50) amounted to 167 nM.

Staying with this assay, now noted: read-out: inh. at 1000 nM (FRET).
Take `CC[C@H](C)Nc1nc(C(=O)O)nc2nc(-c3cccc(C)c3)n(Cc3ccc(C(F)(F)F)cc3)c12` [Example 6.61, 8-(3-methylphenyl)-6-{[(1S)-1-methylpropyl]amino}-7-[4-(trifluoromethyl)benzyl]-7H-purine-2-carboxylic acid]: the inhibition at 1 µM was 41%. On the same count and under the same terms, next, `Cc1cccc(-c2nc3nc(C(=O)O)nc(NC(C)CC(C)C)c3n2Cc2ccc(C(F)(F)F)cc2)c1` (centres unmarked) [Example 6.62, 6-[(1,3-dimethylbutyl)amino]-8-(3-methylphenyl)-7-[4-(trifluoromethyl)benzyl]-7H-purine-2-carboxylic acid]: 34%; `Cc1cccc(-c2nc3nc(C(=O)O)nc(N(C)C4CCCC4)c3n2Cc2ccc(C(F)(F)F)cc2)c1` [Example 6.65, 6-[cyclopentyl(methyl)amino]-8-(3-methylphenyl)-7-[4-(trifluoromethyl)benzyl]-7H-purine-2-carboxylic acid]: 35%; `Cc1cccc(-c2nc3nc(C(=O)O)nc(N4Cc5ccccc5C4)c3n2Cc2ccc(C(F)(F)F)cc2)c1` [Example 6.66, 6-(1,3-dihydro-2H-isoindol-2-yl)-8-(3-methylphenyl)-7-[4-(trifluoromethyl)benzyl]-7H-purine-2-carboxylic acid]: 46%. `Cc1cccc(-c2nc3nc(C(=O)O)nc(N(C)Cc4ccccc4)c3n2Cc2ccc(C(F)(F)F)cc2)c1` [Example 6.67, 6-[benzyl(methyl)amino]-8-(3-methylphenyl)-7-[4-(trifluoromethyl)benzyl]-7H-purine-2-carboxylic acid]: the inhibition at 1 µM was 30%. In the case of `CCCN(CC)c1nc(C(=O)O)nc2nc(-c3cccc(C)c3)n(Cc3ccc(C(F)(F)F)cc3)c12` [Example 6.70, 6-[ethyl(propyl)amino]-8-(3-methylphenyl)-7-[4-(trifluoromethyl)benzyl]-7H-purine-2-carboxylic acid], the inhibition at 1 µM was found to be 39%.

For `Cc1cccc(-c2nc3nc(C(=O)O)nc(N(C)CC(C)C)c3n2Cc2ccc(C(F)(F)F)cc2)c1` [Example 6.72, 6-[methyl(2-methylpropyl)amino]-8-(3-methylphenyl)-7-[4-(trifluoromethyl)benzyl]-7H-purine-2-carboxylic acid], the inhibition at 1 µM is 40%.

`Cc1cccc(-c2nc3nc(C(=O)O)nc(N4CCCC4CC(C)C)c3n2Cc2ccc(C(F)(F)F)cc2)c1` (centres unmarked) [Example 6.76, 8-(3-methylphenyl)-6-[2-(2-methylpropyl)pyrrolidin-1-yl]-7-[4-(trifluoromethyl)benzyl]-7H-purine-2-carboxylic acid]: the inhibition at 1 µM turned out to be 32%. Same read-out and setting: next, `Cc1cccc(-c2nc3nc(C(=O)O)nc(N(C)CCC(C)C)c3n2Cc2ccc(C(F)(F)F)cc2)c1` [Example 6.77, 6-[methyl(3-methylbutyl)amino]-8-(3-methylphenyl)-7-[4-(trifluoromethyl)benzyl]-7H-purine-2-carboxylic acid]: 36%; `CCC1CCCN1c1nc(C(=O)O)nc2nc(-c3cccc(C)c3)n(Cc3ccc(C(F)(F)F)cc3)c12` (centres unmarked) [Example 6.78, 6-(2-ethylpyrrolidin-1-yl)-8-(3-methylphenyl)-7-[4-(trifluoromethyl)benzyl]-7H-purine-2-carboxylic acid]: 33%.

Take `CCCC(C)N(C)c1nc(C(=O)O)nc2nc(-c3cccc(C)c3)n(Cc3ccc(C(F)(F)F)cc3)c12` (centres unmarked) [Example 6.79, 6-[methyl(1-methylbutyl)amino]-8-(3-methylphenyl)-7-[4-(trifluoromethyl)benzyl]-7H-purine-2-carboxylic acid]: the inhibition at 1 µM was 43%.
